Reference: patent publication US10253300B2, “Adapted rhinovirus C” (Wisconsin Alumni Research Foundation, priority 2015, dated 2019)
“Also recorded” adds a separate entry of the source.

Legend:
unadapted C15 virus = test: Inhibition of virus binding by preincubation with heparin: unadapted C15; type: cell-based, rhinovirus C; conditions: heparin 2 mg/ml preincubation
Method: (§1) FIGS. 4A-4E—Heparin and heparan sulfate effects. (A) Virus samples (5×10^5 PFUe) were incubated with heparin (2 mg/ml) or medium alone (no heparin) for 30 min at 34° C., before inoculation of HeLa-E8 cells. After an attachment period (30 min at room temp, 30 min at 34° C.) the cells were washed (3×PBS), harvested and tested by RT-qPCR for the attached virus RNA signals (means±s.d., n≥3). (*) indicates p<0.05 significance (t-test). (B) C15a and C15 K125 (5×10^5 PFUe) were incubated with heparin or heparan sulfate (1 mg/ml) as in A, before HeLa-E8 infections and virus binding assays. (C) The C15a experiment in A was repeated using different doses of heparin in the preincubation. (D) HeLa-E8 cells (12 well-plates) were treated (37° C., 2 h) with the indicated dose (U) of heparinase I before inoculation with C15a virus (5×10^5 PFUe) and tested for virus binding as in A. (E) C15a and recombinant C15 K125/K41 viruses (5×10^5 PFUe) were incubated with heparin (1 mg/ml, 30 min, 34° C.) before inoculation of HeLa-E8 or HeLa-H1 cells. After an attachment period (30 min at room temp, 30 min at 34° C.), the cells were washed with PBS (3×). Cells were harvested and assayed for the attached virus (1 h p.i.) and progeny virus (24 h p.i.) RNA signals by RT-qPCR (means±s.d., n=3). […]

C15a [1] = test: Inhibition of virus binding and replication by preincubation with heparin, HS or glycans: C15a; type: cell-based, rhinovirus C; conditions: for inhibition of virus binding to HeLa-E8 cells: heparin or HS 1-2 mg/ml preincubation
Method: (§2) FIGS. 4A-4E—Heparin and heparan sulfate effects. (A) Virus samples (5×10^5 PFUe) were incubated with heparin (2 mg/ml) or medium alone (no heparin) for 30 min at 34° C., before inoculation of HeLa-E8 cells. After an attachment period (30 min at room temp, 30 min at 34° C.) the cells were washed (3×PBS), harvested and tested by RT-qPCR for the attached virus RNA signals (means±s.d., n≥3). (*) indicates p<0.05 significance (t-test). (B) C15a and C15 K125 (5×10^5 PFUe) were incubated with heparin or heparan sulfate (1 mg/ml) as in A, before HeLa-E8 infections and virus binding assays. (C) The C15a experiment in A was repeated using different doses of heparin in the preincubation. (D) HeLa-E8 cells (12 well-plates) were treated (37° C., 2 h) with the indicated dose (U) of heparinase I before inoculation with C15a virus (5×10^5 PFUe) and tested for virus binding as in A. (E) C15a and recombinant C15 K125/K41 viruses (5×10^5 PFUe) were incubated with heparin (1 mg/ml, 30 min, 34° C.) before inoculation of HeLa-E8 or HeLa-H1 cells. After an attachment period (30 min at room temp, 30 min at 34° C.), the cells were washed with PBS (3×). Cells were harvested and assayed for the attached virus (1 h p.i.) and progeny virus (24 h p.i.) RNA signals by RT-qPCR (means±s.d., n=3).
FIGS. 9A-9B—Glycan effects on virus binding assays. (A) Recombinant C15 or (B) polyclonal C15a were incubated in media with the indicated sialylated glycans (1 mg/ml, see below) before being tested for binding to HeLa-E8 cells. Virus (5×10^5 PFUe) and glycan were mixed (30 min, 34° C.), then added to plated cells (30 min, room temp), before the samples were again incubated at 34° C. for an additional 30 min. The cells were washed (3×) before total RNA was extracted and assayed for C15 titer by RT-qPCR. For SNA and MALII samples, the cells, rather than virus were pretreated (100 μg/ml for 30 min, room temp) before the virus addition step. The plotted values are the averages of duplicate samples (n=2). Glycan reagents include: SLN 2-3 (3′-Sialy-N-acetyllactosamine, V-Labs, Inc), 1 mg/ml; SLN 2-6 (6′-Sialy-N-acetyllactosamine, V-Labs, Inc), 1 mg/ml; SLN 2-8 (Neu5Ac2-8Neu5Ac2-8Neu5Ac-sp-biotin, GlycoTech), 1 mg/ml; GlcNac 1-4 (GlcNAcb1-4GlcNAcb-sp-biotin, GlycoTech), 1 mg/ml; SNA (Sambucus Nigra Lectin, Vector Laboratories), 100 μg/ml; MAUI (Maackia Amurensis Lectin, Vector Laboratories), 100 μg/ml.
(§3) Purified virus (5×10^5 PFUe) was pre-incubated with tested compounds (sialic acid and sugar di- or trisaccharides, heparin or HS) for 30 min at 34° C. before inoculation of HeLa cell monolayers (30 min, room temp; 30 min, 34° C.). Cells were washed three times with PBS, lysed with the RLT buffer (Qiagen) and stored at −80° C. before total RNA extraction and RT-qPCR for C15. For SNA and MAUI samples, the cells, rather than virus were pretreated (100 μg/ml for 30 min, room temp) before the virus addition step. HeLa-E8 cells were washed with PBS containing 1 mM MgCl2 and 1 mM CaCl2 (PBS^++) and incubated for 2 hours at 37° C. with 2.5-10 U of heparinase I in PBS^++ before inoculation with purified virus (10^6 PFUe) for 1 hour at 34° C.

Ala viruses = test: Inhibition of virus binding by preincubation with heparin: Ala; type: cell-based; conditions: heparin 2 mg/ml preincubation
Method: as §1

A16 = test: Inhibition of virus binding by preincubation with heparin: A16; type: cell-based, RV-A; conditions: heparin 2 mg/ml preincubation
Method: as §1

recombinant C15 K125/K41 = test: Inhibition of virus binding and replication by preincubation with heparin: recombinant C15 K125/K41; type: cell-based, rhinovirus C; conditions: heparin 1 mg/ml
Method: as §1

C15 K125 = test: Inhibition of virus binding by preincubation with heparin or HS: C15 K125; type: cell-based, rhinovirus C; conditions: for inhibition of virus binding to HeLa-E8 cells: heparin or HS 1-2 mg/ml preincubation
Method: as §2, §3

C15a [2] = test: Heparinase I pretreatment of HeLa-E8 cells, virus binding: C15a; type: cell-based, rhinovirus C
Method: as §1

RV-C15-K125 = test: Heparinase I treatment, virus binding to HeLa-E8: RV-C15-K125; type: cell-based, rhinovirus C
Method: as §3
Receptor specificity switch has been documented for some major receptor group RVs (e.g. RV-A89) that were adapted for growth in ICAM-1-deficient cells by serial or alternate passages in HEp-2 and HeLa cells (Reischl et al., 2001; Vlasak et al., 2005). A HEp-2-adapted RV-A89 variant can utilize HS proteoglycans as a cellular receptor (Vlasak et al., 2005). […] In contrast to RV-A89, RV-C15 adaptation by passaging in HeLa cells occurred in the absence of selective pressure for binding specificity change. This process has also been observed in some other picornaviruses and alphaviruses (Sa-Carvalho et al., 1997; Klimstra et al., 1998; Smit et al., 2002). […]

[3] = heparin 2 mg/ml, 30 min 34° C. preincubation, 5×10^5 PFUe, HeLa-E8

With heparin the “effect of heparin on virus interaction with HeLa-E8 cells” value (from here on “effect of heparin on virus interaction”) (unadapted C15 virus) was “not affected”, the “dose dependence of inhibition of binding” value (C15a [1]; different doses of heparin in the preincubation, HeLa-E8) was “dependent upon the dose” and the “effect of heparin on binding and replication in HeLa-H1 cells” value (C15a [1]; heparin 1 mg/ml, 1 h and 24 h p.i.) was “abolished”. For the same substance, the “replication in HeLa-E8 cells despite the heparin treatment” value (C15a [1]; heparin 1 mg/ml, 24 h p.i.) was “still replicated (to a degree)”, the “reduction of binding titer by heparin” value (C15a [1]; [3]) was 17 fold and the “inhibition of virus binding to HeLa-E8 cells” value (“inhibition of virus binding” for short) (C15a [1]) was “inhibited”. The “effect of heparin on virus interaction” value (Ala viruses) was “not affected”, the “effect of heparin on virus interaction” value (A16) was “not affected” and the “effect of heparin on binding and replication in HeLa-H1 cells” value (recombinant C15 K125/K41; 1 h and 24 h p.i.) was “abolished”. The “replication in HeLa-E8 cells despite the heparin treatment” value (recombinant C15 K125/K41; 24 h p.i.) was “still replicated (to a degree)”, the “reduction of binding titer by heparin” value (C15 K125; [3]) was 44 fold and the “inhibition of virus binding” value (C15 K125) was “inhibited”.

heparan sulfate [HS] was tested, and the “inhibition of virus binding” value (C15a [1]) was “had this effect; also recorded: inhibited” and the “inhibition of virus binding” value (C15 K125) was “had this effect; also recorded: inhibited”.

heparinase I was tested, and the “reduction of C15a binding after heparinase I pretreatment of HeLa-E8 cells” value (C15a [2]; 2.5-10 U heparinase I, 37° C., 2 h) was “more than 7 fold”, the “inhibition of virus binding” value (C15a [2]; heparinase I treatment) was “inhibited” and the “inhibition of virus binding” value (RV-C15-K125) was “inhibited”.
